The subject of series [1] is human placental vein discs. The experiment in a line: Human placental vein angiogenesis model (HPVAM): initiation and angiogenic index. To be noted: for inhibition at 0.01 % strength: 0.01% w/v. In kind it is cell-based. The source says: The Human Placental Vein Angiogenesis Model: Discarded human placentas were obtained anonymously with prior approval of an Institutional Review Board. The placental veins were dissected free from the placenta and adventitial tissue. The trimmed vein segment was opened longitudinally to produce a flat film of venous tissue of full thickness. Vein discs (2 mm diameter) were created with a sterile skin punch (Miltex Instrument Company, Inc.; Lake Success, N.Y.). The discs were placed into wells of a standard 96-well plate (Corning Inc., Corning, N.Y.). The vein disc harvest was completed within three hours of delivery to optimize endothelial cell viability. Vein discs from a single placenta were distributed equally among all treatment groups to ensure randomization. Each well was preloaded with a human thrombin solution (0.05 IU in 2.0 μl), and allowed to evaporate to dryness before use. All chemicals were purchased from Sigma Chemical Company (St. Louis, Mo.) unless otherwise indicated.
Following the placement of the 2 mm vein disc in the bottom of each thrombin-containing well, the disc was covered with 100 μl of a clot-forming medium, comprising 3 mg/ml fibrinogen and 0.5% Σ-amino caproic acid dissolved in Human Placental Vein Angiogenesis Media (HPVAM). HPVAM is made of Medium 199 (Vitrogen Corporation, Carlsbad, Calif.), an antibiotic/antimycotic solution (100 U/ml penicillin, 100 U/ml streptomycin sulfate, and 0.25 μg/ml amphotericin(3; Vitrogen Corporation), and endothelial growth medium (25%) (Vitrogen Corporation). The mixture was allowed to clot by incubating in 5% CO2, 95% air at 37° C. in a humidified incubator. After the medium-containing placental discs had clotted, the vein-containing clot was supplemented with 100 μl HPVAM containing 20% fetal bovine serum (Vitrogen Corporation). The total well volume was 200 μl.
Evaluation of Angiogenesis: Visual evaluation of all wells was performed at 20× or 40× magnification with a standardized reference grid by an unbiased observer using an inverted microscope. Every other day, discs were graded using two criteria: the initiation of sprouting vessels (initiation) and the degree of sprouting (angiogenic index). Initiation of an angiogenic response was defined as the development of three or more vessel sprouts around the periphery of the vein disc. Initiation occurred in 50-95% of the wells, usually 4 to 6 days after establishment of the clots. Initiation was expressed as the percent of the total wells plated that indicated an angiogenic response.
The angiogenic index (AI) was defined using a subjective visual rating system. Each disc was visually rated for the development of vessel sprouting in each of four quadrants. Each of the four quadrants for each disc was rated on a 0-4 scale, depending on the number of sprouts (density) and the length of sprouts. Scores for all four quadrants were summed to express the AI, a numerical rating that could range from 0 to 16. A score of zero indicated no vessel growth in any of the four quadrants, while a score of 16 indicated long, dense angiogenic vessel growth in all four quadrants. For most experiments, the AI was expressed as a mean plus/minus a standard error of the mean.
To separate the process of initiation from that of proliferation, the AI was analyzed both with zero AI data points and without zero AI data points. […] This lack of initiation could have been due either to the effect of the experimental compound, to the insensitivity of the vein disc to stimulation in the culture conditions, or to the vein disc not being viable. In previous experiments, we have shown that only a small percent, about 2 to 3%, of vein discs are not viable (data not shown). Thus, a graph of AI with zero AI data points indicates the complete angiogenic response of initiation and growth under the experimental conditions. However, a graph of AI without the zero AI data points indicates only growth of the vessels after initiation. […]

The next series has as its system human fat tissue. Put plainly: Human fat tissue angiogenesis assay. It is filed as cell-based. Conditions: 0.01 M and 0.001 M, data not shown. How it is done:
To test the angiogenic activity of plant extracts in another tissue, the refined fraction PUG100 was tested for its anti-angiogenic activity in human fat tissue taken from patients having gastric bypass surgery (Vista Surgical Hospital, Baton Rouge, La.). The human fat tissue assay was conducted very similar to that described in Example 1 for human placental vein tissue. […] (FIG. 25a). Immediately after the addition of the refined fraction PUG100, angiogenic vessel growth started to diverge. The control wells continued their growth, but the PUG100 treated wells stopped further growth. […] (Data not shown).

For series [2] the following is noted: 5% gallic acid, oral, 13 wks; cited from earlier work.
Where [3] appears, read: Homo sapiens, 336 h, 14 days in culture, FIG. 12a, read-out: inhibition of angiogenic initiation compared to the control.
[4] abbreviates: Homo sapiens, FIG. 12b, read-out: inhibition of angiogenesis compared with the control (mean AI with the zero points).
Where [5] appears, read: Homo sapiens, FIG. 12b, read-out: inhibition of angiogenic growth compared with the control (mean AI without the zero points).
Setting [6] is: highest concentration tested (2×10^−2M; octyl gallate 2×10^−3 M), FIG. 13a.

Results on six molecules are retold here after patent US8334000B2, “Anti-angiogenic extracts from pomegranate” (priority 2003, dated 2012).

Where two headings read alike, the source gives them in different places.

The term inhibition denotes the share of the control response that was lost under treatment.

Turning to `CCCCOC(=O)c1cc(O)c(O)c(O)c1` [butyl gallate], the inhibition at 0.01 % strength is 85% in series [1] (setting [3]), 96% in series [1] (setting [4]) and 74% in series [1] (setting [5]). In addition, in series [1] (setting [6]), the initiation of angiogenesis result is “totally blocked”.

Take `O=C(O)c1cc(O)c(O)c(O)c1` [gallic acid, 3,4,5-trihydroxy benzoic acid]: the initiation of angiogenesis result was “totally inhibited” in series [1] (0.025%, added after six days, FIG. 5a); “totally inhibited” in series [1] (10^−3 M, FIG. 6a); “totally blocked” in series [1] (setting [6]); “inhibited initiation of angiogenesis” with human fat tissue. Moreover, the “mean AI with the zero points included (initiation and proliferation)” value in series [1] (10^−3 M, FIG. 6b) is given as “totally inhibited angiogenesis”. For the same molecule, the Percent initiation in series [1] (10^−4 M, FIG. 6a) was found to be 56%; in series [1] (10^−5 M, FIG. 6a), 50%; in series [1] (up to 10^−10 M, FIG. 6a), 33%. In addition, the “concentrations at which the inhibitory effect stopped (mean AI with zero points)” value in series [1] (FIG. 6b) is reported as ≤ 10^−6 M. Further, in series [1] (FIG. 6c), the “concentrations that showed inhibition (mean AI without the zero points, proliferation only)” value was “greater than 10^−4 M”. For the same molecule, in series [1] (Homo sapiens, read-out: estimated inhibition (IC19) if gallic acid were the only active compound, 2.5×10^−5 M), the inhibition at 25 µM was 19%. Besides, the body weight gain entry in series [2] was “suppress body weight gain”.

With `COC(=O)c1cc(O)c(O)c(O)c1` [methyl gallate], the figures for the inhibition at 0.01 % strength in series [1] (setting [3]), in series [1] (setting [4]) and in series [1] (setting [5]) were 38%, 71% and 52%, respectively.

As to `CCCCCCCCOC(=O)c1cc(O)c(O)c(O)c1` [octyl gallate], the “lowest concentration indicating inhibition of angiogenesis” value in series [1] was determined as 200 µM. The initiation of angiogenesis result is “totally blocked” in series [1] (2×10^−4 M, FIG. 13a) and “totally blocked” in series [1] (setting [6]). In addition, the “mean AI with the zero points included (initiation and proliferation)” value in series [1] (2×10^−4 M, FIG. 13b) is on record as “effective”. Besides, the inhibition at 0.01 % strength worked out at 85% in series [1] (setting [3]), 97% in series [1] (setting [4]) and 83% in series [1] (setting [5]).

As for `CCCOC(=O)c1cc(O)c(O)c(O)c1` [propyl gallate], the results for the inhibition at 0.01 % strength in series [1] (setting [3]), in series [1] (setting [4]) and in series [1] (setting [5]) were 46%, 61% and 28%, respectively.

For the molecule `O=C(OC[C@H]1O[C@@H](OC(=O)c2cc(O)c(O)c(OC(=O)c3cc(O)c(O)c(O)c3)c2)[C@H](OC(=O)c2cc(O)c(O)c(OC(=O)c3cc(O)c(O)c(O)c3)c2)[C@@H](OC(=O)c2cc(O)c(O)c(OC(=O)c3cc(O)c(O)c(O)c3)c2)[C@@H]1OC(=O)c1cc(O)c(O)c(OC(=O)c2cc(O)c(O)c(O)c2)c1)c1cc(O)c(O)c(OC(=O)c2cc(O)c(O)c(O)c2)c1` [tannic acid, Tannic acid], the initiation of angiogenesis result in series [1] (0.1% in HPVAM, FIG. 8a) is reported as “inhibited the initiation of angiogenesis even better than the positive heparin-steroid control”.
